This is an account of results in patent US12473304B2, “Heterocyclic PAD4 inhibitors” (BRISTOL-MYERS SQUIBB COMPANY, priority 2020, dated 2025).

The target of this experiment is human PAD4 (hPAD4) (Homo sapiens (Human), UniProt Q9UM07). Put plainly: RFMS Human PAD4 Functional Assay 1. The class given is biochemical. Conditions: RFMS assay 1; 5 nM hPAD4, 250 μM BAEE substrate, 50 μM calcium, 37° C. The procedure, abridged: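 Citrullination product read by RapidFire triple-quad MRM against a modified-citrulline internal standard, after TCA stop and 30 min phenyl glyoxal step at 37 °C. Reaction: 250 μM BAEE, 5 nM human PAD4, 90 min at 37 °C, pH 7.5 HEPES buffer with 50 μM calcium and 5 μM TPEN, following 30 min compound–enzyme preincubation (max 50 μM).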
Sequence of human PAD4 (hPAD4) (Q9UM07 whole entry): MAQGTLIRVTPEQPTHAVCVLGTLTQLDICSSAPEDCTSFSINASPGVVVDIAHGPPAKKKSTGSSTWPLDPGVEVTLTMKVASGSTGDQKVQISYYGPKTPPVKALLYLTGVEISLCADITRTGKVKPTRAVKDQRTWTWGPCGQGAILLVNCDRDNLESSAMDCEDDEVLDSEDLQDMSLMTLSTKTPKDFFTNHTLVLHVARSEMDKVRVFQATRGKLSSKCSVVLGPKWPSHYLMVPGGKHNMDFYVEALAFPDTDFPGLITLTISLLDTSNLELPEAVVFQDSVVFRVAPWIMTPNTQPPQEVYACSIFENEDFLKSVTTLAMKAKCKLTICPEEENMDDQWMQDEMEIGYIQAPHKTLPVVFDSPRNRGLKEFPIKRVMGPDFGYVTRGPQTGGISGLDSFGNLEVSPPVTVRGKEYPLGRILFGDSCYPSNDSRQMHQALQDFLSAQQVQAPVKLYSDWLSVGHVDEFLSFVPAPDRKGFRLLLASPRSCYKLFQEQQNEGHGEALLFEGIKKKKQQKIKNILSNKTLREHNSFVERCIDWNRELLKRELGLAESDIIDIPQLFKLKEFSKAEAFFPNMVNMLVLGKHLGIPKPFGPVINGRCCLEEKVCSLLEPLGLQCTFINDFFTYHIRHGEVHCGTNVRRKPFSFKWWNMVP
By IC50 is commonly meant the point on the concentration scale where inhibition reaches its midpoint. In the case of `Cc1c(-c2cc3ccc(-c4ccc(C(N)=O)c(Cl)c4)cc3n2CC2CC2)oc2cc(C(=O)N3C[C@H](N)C[C@@H](F)C3)ccc12` [Example 199, 4-(2-(6-((3R,5R)-3-Amino-5-fluoropiperidine-1-carbonyl)-3-methylbenzofuran-2-yl)-1-(cyclopropylmethyl)-1H-indol-6-yl)-2-chlorobenzamide], the IC50 was found to be 3360 nM. The result for `Cc1c(-c2cc3ccc(-c4ccn5c(C)nnc5c4)nc3n2CC2CC2)nn2cc(C(=O)N3CCC[C@@H](N)C3)cc(F)c12` [Example 288, (3R)-1-{2-[1-(Cyclopropylmethyl)-6-{3-methyl-[1,2,4]triazolo[4,3-a]pyridin-7-yl}-1H-pyrrolo[2,3-b]pyridin-2-yl]-4-fluoro-3-methylpyrazolo[1,5-a]pyridine-6-carbonyl}piperidin-3-amine] reads 80 nM; that for `COc1cc(C(=O)N2CC3CCC2[C@@H]3N)cn2nc(-c3cc4ccc(C)nc4n3CC3CC3)c(C)c12` (stereo partly drawn) [Example 4, ((7R)-7-Amino-2-azabicyclo[2.2.1]heptan-2-yl)(2-(1-(cyclopropylmethyl)-6-methyl-1H-pyrrolo[2,3-b]pyridin-2-yl)-4-methoxy-3-methylpyrazolo[1,5-a]pyridin-6-yl)methanone], 68 nM; that for `COc1nc(C(=O)N2CC3CCC2[C@@H]3N)cn2nc(-c3cc4cccnc4n3CC3CC3)c(C)c12` (stereo partly drawn) [Example 115, ((7R)-7-Amino-2-azabicyclo[2.2.1]heptan-2-yl)(2-(1-(cyclopropylmethyl)-1H-pyrrolo[2,3-b]pyridin-2-yl)-4-methoxy-3-methylpyrazolo[1,5-a]pyrazin-6-yl)methanone], 3370 nM. For `Cc1c(-c2cc3cccc(C4CCN(C(=O)C(C)(C)O)CC4)c3n2CC2CC2)nn2cc(C(=O)N3CCC[C@@H](N)C3)ccc12` [Example 436, (R)-1-(4-(2-(6-(3-aminopiperidine-1-carbonyl)-3-methylpyrazolo[1,5-a]pyridin-2-yl)-1-(cyclopropylmethyl)-1H-indol-7-yl)piperidin-1-yl)-2-hydroxy-2-methylpropan-1-one], the half-inhibitory concentration (IC50) came out at 300 nM. The value for `COC(=O)N(C)C1CCN(c2ccc3cc(-c4nn5cc(C(=O)N6CCC[C@@H](N)C6)cc(OC)c5c4C)n(CC4CC4)c3c2)CC1` [Example 255, Methyl N-[1-(2-{6-[(3R)-3-aminopiperidine-1-carbonyl]-4-methoxy-3-methylpyrazolo[1,5-a]pyridin-2-yl}-1-(cyclopropylmethyl)-1H-indol-6-yl)piperidin-4-yl]-N-methylcarbamate] was 250 nM; that for `COc1cc(C(=O)N2C[C@H](N)C[C@@H](F)C2)cn2nc(-c3cc4cc(F)cc(C5CCN(C(C)=O)CC5)c4n3CC3CC3)c(C)c12` [Example 482, 1-(4-(2-(6-((3R,5R)-3-Amino-5-fluoropiperidine-1-carbonyl)-4-methoxy-3-methylpyrazolo[1,5-a]pyridin-2-yl)-1-(cyclopropylmethyl)-5-fluoro-1H-indol-7-yl)piperidin-1-yl)ethan-1-one] was 60 nM. Regarding `Cc1c(-c2cc3ccc(OCC4CNC(=O)C4)nc3n2CC2CC2)nn2cc(C(=O)N3CC4CCC3[C@@H]4N)cc(F)c12` (mixture of isomers) [Example 275, 4-{[(2-{6-[(7R)-7-Amino-2-azabicyclo[2.2.1]heptane-2-carbonyl]-4-fluoro-3-methylpyrazolo[1,5-a]pyridin-2-yl}-1-(cyclopropylmethyl)-1H-pyrrolo[2,3-b]pyridin-6-yl)oxy]methyl}pyrrolidin-2-one], the IC50 amounted to 120 nM. The value for `Cc1c(-c2cc3ccc(-c4ccn5c(C)nnc5c4)nc3n2CC2CC2)nn2cc(C(=O)N3CC4CCC3[C@@H]4N)ccc12` (stereo partly drawn) [Example 70, ((7R)-7-Amino-2-azabicyclo[2.2.1]heptan-2-yl)(2-(1-(cyclopropylmethyl)-6-(3-methyl-[1,2,4]triazolo[4,3-a]pyridin-7-yl)-1H-pyrrolo[2,3-b]pyridin-2-yl)-3-methylpyrazolo[1,5-a]pyridin-6-yl)methanone] was 15 nM; that for `COc1cc(C(=O)N2C[C@H](N)C[C@@H](F)C2)cn2nc(-c3cc4ccc(-c5ccc(C(=O)N(C)C)cc5)cc4n3CC3CC3)c(C)c12` [Example 217, 4-(2-{6-[(3R,5R)-3-Amino-5-fluoropiperidine-1-carbonyl]-4-methoxy-3-methylpyrazolo[1,5-a]pyridin-2-yl}-1-(cyclopropylmethyl)-1H-indol-6-yl)-N,N-dimethylbenzamide] was 260 nM; that for `Cc1c(-c2cc3ccc(C4CC4)nc3n2CC2CC2)nn2cc(C(=O)N3CC4CCC3[C@@H]4N)ccc12` (stereo partly drawn) [Example 71, ((7R)-7-Amino-2-azabicyclo[2.2.1]heptan-2-yl)(2-(6-cyclopropyl-1-(cyclopropylmethyl)-1H-pyrrolo[2,3-b]pyridin-2-yl)-3-methylpyrazolo[1,5-a]pyridin-6-yl)methanone] was 22 nM. The value for `CNC(=O)c1ccc(-c2ccc3cc(-c4nn5cc(C(=O)N6CC7CCC6[C@@H]7N)cc(F)c5c4C)n(CC4CC4)c3n2)cn1` (stereo partly drawn) [Example 264, 5-(2-{6-[(7R)-7-Amino-2-azabicyclo[2.2.1]heptane-2-carbonyl]-4-fluoro-3-methylpyrazolo[1,5-a]pyridin-2-yl}-1-(cyclopropylmethyl)-1H-pyrrolo[2,3-b]pyridin-6-yl)-N-methylpyridine-2-carboxamide] was 10 nM; that for `COc1cc(C(=O)N2CC3CCC2[C@@H]3N)cc2oc(-c3cc4cccnc4n3CC3CC3)c(C)c12` (stereo partly drawn) [Example 145, ((7R)-7-Amino-2-azabicyclo[2.2.1]heptan-2-yl)(2-(1-(cyclopropylmethyl)-1H-pyrrolo[2,3-b]pyridin-2-yl)-4-methoxy-3-methylbenzofuran-6-yl)methanone] was 285 nM; that for `COc1cc(C(=O)N2C[C@H](N)C[C@@H](F)C2)cn2nc(-c3cc4ccc(-c5ccc6c(c5)CNC6=O)nc4n3CC3CC3)c(C)c12` [Example 20, 5-(2-(6-((3R,5R)-3-Amino-5-fluoropiperidine-1-carbonyl)-4-methoxy-3-methylpyrazolo[l,5-a]pyridin-2-yl)-1-(cyclopropylmethyl)-1H-pyrrolo[2,3-b]pyridin-6-yl)isoindolin-1-one] was 116 nM.

As for `COc1cc(C(=O)N2CC3CCC2[C@@H]3N)cn2nc(-c3cc4ccc(-c5ccc6c(c5)C(=O)NC6)cc4n3CC3CC3)c(C)c12` (stereo partly drawn) [Example 23, 6-(2-(6-((7R)-7-Amino-2-azabicyclo[2.2.1]heptane-2-carbonyl)-4-methoxy-3-methylpyrazolo[1,5-a]pyridin-2-yl)-1-(cyclopropylmethyl)-1H-indol-6-yl)isoindolin-1-one], the IC50 is 108 nM.

Take `Cc1c(-c2cc3cccc(C4CCN(C(=O)CCO)CC4)c3n2CC2CC2)nn2cc(C(=O)N3C[C@H](N)C[C@@H](F)C3)ccc12` [Example 430, 1-(4-(2-(6-((3R,5R)-3-amino-5-fluoropiperidine-1-carbonyl)-3-methylpyrazolo[1,5-a]pyridin-2-yl)-1-(cyclopropylmethyl)-1H-indol-7-yl)piperidin-1-yl)-3-hydroxypropan-1-one]: the IC50 was found to be 80 nM. The result for `COc1cc(C(=O)N2CC3CCC2[C@@H]3N)cn2nc(-c3cc4ccc(Cl)nc4n3CC3CC3)c(C)c12` (stereo partly drawn) [Example 2, ((7R)-7-Amino-2-azabicyclo[2.2.1]heptan-2-yl)(2-(6-chloro-1-(cyclopropylmethyl)-1H-pyrrolo[2,3-b]pyridin-2-yl)-4-methoxy-3-methylpyrazolo[1,5-a]pyridin-6-yl)methanone] reads 380 nM; that for `Cc1c(-c2cc3cccc(C4CCN(C(=O)CO)CC4)c3n2CC2CC2)nn2cc(C(=O)N3CCC[C@@H](N)C3)ccc12` [Example 439, (R)-1-(4-(2-(6-(3-aminopiperidine-1-carbonyl)-3-methylpyrazolo[1,5-a]pyridin-2-yl)-1-(cyclopropylmethyl)-1H-indol-7-yl)piperidin-1-yl)-2-hydroxyethan-1-one], 30 nM; that for `Cc1c(-c2cc3ccnc(OCCn4ccnc4)c3n2CC2CC2)nn2cc(C(=O)N3C[C@H](N)C[C@@H](F)C3)ccc12` [Example 616, (2-(7-(2-(1H-Imidazol-1-yl)ethoxy)-1-(cyclopropylmethyl)-1H-pyrrolo[2,3-c]pyridin-2-yl)-3-methylpyrazolo[1,5-a]pyridin-6-yl)((3R,5R)-3-amino-5-fluoropiperidin-1-yl)methanone], 20 nM. The value for `Cc1c(-c2cc3cccc(C4CCN(C(=O)C(C)(C)CO)CC4)c3n2CC2CC2)nn2cc(C(=O)N3C[C@H](N)C[C@@H](F)C3)ccc12` [Example 433, 1-(4-(2-(6-((3R,5R)-3-amino-5-fluoropiperidine-1-carbonyl)-3-methylpyrazolo[1,5-a]pyridin-2-yl)-1-(cyclopropylmethyl)-1H-indol-7-yl)piperidin-1-yl)-3-hydroxy-2,2-dimethylpropan-1-one] was 140 nM; that for `Cc1c(-c2cc3ccc(-c4ccc(Cl)c5c(NS(C)(=O)=O)nn(C)c45)cc3n2CC2CC2)nn2cc(C(=O)N3CC4CCC3[C@@H]4N)ccc12` (stereo partly drawn) [Example 337, N-[7-(2-{6-[(7R)-7-Amino-2-azabicyclo[2.2.1]heptane-2-carbonyl]-3-methylpyrazolo[1,5-a]pyridin-2-yl}-1-(cyclopropylmethyl)-1H-indol-6-yl)-4-chloro-1-methyl-1H-indazol-3-yl]methanesulfonamide] was 20 nM. The result for `COC(=O)N1CCC(c2cccc3cc(-c4nn5cc(C(=O)N6CCC[C@@H](N)C6)ccc5c4C)n(CC4CC4)c23)CC1` [Example 468, Methyl (R)-4-(2-(6-(3-aminopiperidine-1-carbonyl)-3-methylpyrazolo[1,5-a]pyridin-2-yl)-1-(cyclopropylmethyl)-1H-indol-7-yl)piperidine-1-carboxylate] reads 100 nM.
